Experimental data: patent US8722626B2, “Method for controlling fibrosis and other pathological deposits in tissues comprising administering a GHRP-6 composition” (Centro de Ingenieria Genetica y Biotecnologia, priority 2006, dated 2014)
Marks after values point to notes of the source that are not given here.

Assays:
[1] = test system: male APP transgenic mice expressing the beta-amiloid precursor protein; assay: Beta-amiloid protein deposition in brain of APP transgenic mice (Example 5); type: in vivo, mouse; design: SODt (oxidative stress marker) / Catalase (oxidative stress marker) / HPT (oxidative stress marker) / MDA (oxidative stress marker): unit not given here; settings: 8 weeks; for Catalase (oxidative stress marker) / HPT (oxidative stress marker) / MDA (oxidative stress marker) / SODt (oxidative stress marker): brain tissues; for No. of deposits positive to Congo Red / No. of deposits positive to beta-amiloid / Size of amiloid plaques: brain
Protocol: This study was conducted to evaluate the influence of the long-term administration (8 weeks) of the GHRP-6 on the biochemical and morphological markers in the brain of transgenic mice expressing the beta-amiloid precursor protein, these markers also indicating the progression of the central nervous system damage. For the present study, 20-25 g in body weight male APP transgenic mice were acquired, expressing the beta-amiloid precursor protein. Animals (N=30) were randomly distributed in:
Placebo group—Physiological saline solution 0.9%.
Dosage I group—GHRP-6 at 50 μg/kg of body weight in saline solution.
Dosage II group—GRHP-6 at 100 μg/kg of body weight in saline solution.
Treatments were applied by the intraperitoneal route in 1 ml, five days a week during 8 weeks, with animals receiving 40 administrations of GHRP-6. We knew from previous exploratory pilot studies that this period of time was sufficient for improving cognitive and motor skills in animals under stress.
After 8 weeks of treatment, mice were sacrificed by anesthesia overdose, and perfused in situ with saline solution. Encephala were extracted, one encephalon was frozen in dry-ice and the other was fixed in 4% para-formaldehyde neutral. Samples were cryo-sliced at 10 μm and slices were stained with hematoxylin/eosin, Congo Red, or incubated with an antibody specific for the beta-amiloid protein. Morphometric procedures were carried out by microscopic imaging capture by a camera connected to the microscope, and the images were analyzed with the DIGIPAT software.
The number of fibrillar deposits of the beta-amiloid protein positive to Congo Red staining.
The number of foci immunoreactive to the antibody that recognizes the beta-amiloid protein.
Size of the beta-amiloid plaques in the brain, recognized at 200× and 400× magnifications (μm^2).
Brain concentration of myo-inositol as indicator of aging and brain metabolism deterioration (μmol/g of tissue).

[2] = test system: hepatic fibrosis in male Wistar rats (CCl4); assay: Reverting hepatic fibrosis induced by carbon tetrachloride (CCl4) in rats (Example 2); type: in vivo, rat; design: SODt (oxidative stress marker) / Catalase (oxidative stress marker) / HPT (oxidative stress marker) / MDA (oxidative stress marker): unit not given here; settings: for GOT serum level / GPT serum level / OH—P Content (hydroxiproline) in the liver / Grade 0 (null) bridging fibro-proliferative reaction in liver, animals per group / Grade 1 (moderate, up to 25% of the slide), animals per group / Grade 2 (limited, up to 50% of the slide), animals per group / Grade 3 (severe, up to the 75% of the slide), animals per group / Grade 4 (very severe, over 75% of the slide), animals per group: four weeks; for GOT serum level / GPT serum level / OH—P Content (hydroxiproline) in the liver: end of treatment; for Grade 0 (null) bridging fibro-proliferative reaction in liver, animals per group / Grade 1 (moderate, up to 25% of the slide), animals per group / Grade 2 (limited, up to 50% of the slide), animals per group / Grade 3 (severe, up to the 75% of the slide), animals per group / Grade 4 (very severe, over 75% of the slide), animals per group: n = 15; for Catalase (oxidative stress marker) / HPT (oxidative stress marker) / MDA (oxidative stress marker) / SODt (oxidative stress marker): liver samples, end of the third week of treatment
Protocol: This experiment was conducted to evaluate the effect of the pharmaceutical composition containing the GHRP-6 on reverting hepatic fibrosis in rats, wherein said hepatic fibrosis was induced by carbon tetrachloride (CCl4). This is a hepatotoxic agent that causes chronic hepatitis and fibrosis after long-term administration. Hepatic fibrosis was induced in male Wistar rats of 250 g of body weight by intraperitoneally administered CCl4 50%/50% (v/v) in olive oil, twice per week during four weeks. After that time, 25% of the rats were sacrificed and subjected to blood biochemistry and pathological anatomy studies. […] The animals remaining were randomly distributed into three experimental groups of 15 rats each: (1) Control placebo group, receiving physiological saline solution, (2) Group receiving the GHRP-6 at a 100 μg/kg dosage, and (3) Group receiving the GHRP-6 at a 400 μg/kg dosage. […] Treatments were started immediately after the fibrosis established and the suspension of CCl4 administration. […] Liver fragments were fixed in formalin neutral and processed by hematoxylin/eosin staining, or by Masson's trichromic staining, to evaluate the general damage and the severity of fibrotic indurations. Other fragments of liver tissues were stored at −70° C. until processing to determine the content of hydroxiproline by acid hydrolysis in 1N HCl, and also the intrahepatic levels of redox metabolism markers. Biochemical determinations were carried out by calculating the total protein content by the Bradford's method. The response to the treatment with the pharmaceutical composition was characterized by determining the serum levels of GOT and GPT transaminases, histological criteria in quantitative scale and some markers distinctive of the levels of lipid peroxidation.

[3] = Dosage I: 50 μg/kg i.p. five days a week
[4] = Dosage II: 100 μg/kg i.p. five days a week
[5] = Dosage II: 400 μg/kg once daily

Substance: GHRP-6
- Myo-inositol concentration in the brain. [1, 3]: 49.35 ± 10 μmol/g of tissue
- Myo-inositol concentration in the brain. [1, 4]: 27.45 ± 8.61 μmol/g of tissue
- Catalase (oxidative stress marker) ([1]; Dosage I: 50 μg/kg i.p.): 81.6 ± 15.25
- HPT (oxidative stress marker) ([1]; Dosage I: 50 μg/kg i.p.): 54.3 ± 11.87
- MDA (oxidative stress marker) ([1]; Dosage I: 50 μg/kg i.p.): 0.77 ± 1.56
- SODt (oxidative stress marker) ([1]; Dosage I: 50 μg/kg i.p.): 611.17 ± 44.79
- Catalase (oxidative stress marker) ([1]; Dosage II: 100 μg/kg i.p.): 60.18 ± 13.67
- HPT (oxidative stress marker) ([1]; Dosage II: 100 μg/kg i.p.): 21.25 ± 5.44
- MDA (oxidative stress marker) ([1]; Dosage II: 100 μg/kg i.p.): 0.4 ± 0.02
- SODt (oxidative stress marker) ([1]; Dosage II: 100 μg/kg i.p.): 863.22 ± 50.3
- No. of deposits positive to Congo Red [1, 3]: 21.78 ± 6.57
- No. of deposits positive to beta-amiloid [1, 3]: 15.11 ± 3.27
- Size of amiloid plaques [1, 3]: 15.51 ± 6.44 μm^2
- No. of deposits positive to Congo Red [1, 4]: 14.52 ± 4.18
- No. of deposits positive to beta-amiloid [1, 4]: 13.58 ± 4.61
- Size of amiloid plaques [1, 4]: 10.88 ± 4.1 μm^2
- GOT serum level ([2]; Dosage I: 100 μg/kg once daily): 56.31 ± 12.19 IU/l
- GPT serum level ([2]; Dosage I: 100 μg/kg once daily): 77.15 ± 22.66 IU/l
- OH—P Content (hydroxiproline) in the liver ([2]; Dosage I: 100 μg/kg once daily): 40.21 ± 3.54 μg/g of total proteins
- Grade 0 (null) bridging fibro-proliferative reaction in liver, animals per group ([2]; Dosage I: 100 μg/kg once daily): 0
- Grade 1 (moderate, up to 25% of the slide), animals per group ([2]; Dosage I: 100 μg/kg once daily): 9
- Grade 2 (limited, up to 50% of the slide), animals per group ([2]; Dosage I: 100 μg/kg once daily): 6*
- Grade 3 (severe, up to the 75% of the slide), animals per group ([2]; Dosage I: 100 μg/kg once daily): 0
- Grade 4 (very severe, over 75% of the slide), animals per group ([2]; Dosage I: 100 μg/kg once daily): 0
- GOT serum level [2, 5]: 28.18 ± 4.71 IU/l
- GPT serum level [2, 5]: 26.94 ± 12.42 IU/l
- OH—P Content (hydroxiproline) in the liver [2, 5]: 10.22 ± 4.33 μg/g of total proteins
- Grade 0 (null) bridging fibro-proliferative reaction in liver, animals per group [2, 5]: 8*
- Grade 1 (moderate, up to 25% of the slide), animals per group [2, 5]: 7
- Grade 2 (limited, up to 50% of the slide), animals per group [2, 5]: 0
- Grade 3 (severe, up to the 75% of the slide), animals per group [2, 5]: 0
- Grade 4 (very severe, over 75% of the slide), animals per group [2, 5]: 0
- Catalase (oxidative stress marker) ([2]; Dosage I: 100 μg/kg): 60.43 ± 11.81
- HPT (oxidative stress marker) ([2]; Dosage I: 100 μg/kg): 55.11 ± 2.77
- MDA (oxidative stress marker) ([2]; Dosage I: 100 μg/kg): 0.16 ± 1.16
- SODt (oxidative stress marker) ([2]; Dosage I: 100 μg/kg): 17632.08 ± 321.55
- Catalase (oxidative stress marker) ([2]; Dosage II: 400 μg/kg): 22.67 ± 3.56
- HPT (oxidative stress marker) ([2]; Dosage II: 400 μg/kg): 26.44 ± 2.43
- MDA (oxidative stress marker) ([2]; Dosage II: 400 μg/kg): 0.09 ± 0.01
- SODt (oxidative stress marker) ([2]; Dosage II: 400 μg/kg): 20187.87 ± 245.13
- Deposition of collagenous and extracellular matrix materials in the liver parenchyma (overall result) ([2]; repeated CCl4 administration): eradicate and control deposition of collagenous and extracellular matrix materials
- Hepatocytes death ([2]; repeated CCl4 administration): prevents individual, focal and pericentrolobular hepatocytes death
